Experiments:
[1] = tested on: SAGPY (Arrowhead (Pygmaea)); assay: Postemergence weed control under flooded paddy conditions; assay type: in vivo, Sagittaria pygmaea; details: postemergence weeds, 3-4 weeks after treatment
In short: (§1)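 Containers holding 3–5 cm weeds and rice at 1.5–2.5 leaves are flooded to 1.5–3 cm above soil. Compound in 50/50 v/v aqueous/acetone is then added directly to the water, about 0.0313–0.500 kg/ha. Plants are kept in the greenhouse and rated 0–9 visually at 3–4 weeks.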

[2] = tested on: ECHCG (Barnyardgrass); assay: Preemergence herbicidal evaluation; assay type: in vivo, Echinochloa crus-galli; details: rated 4-5 weeks after treatment
In short: (§2)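 Seeds were mixed with potting soil and planted on about one inch of soil, then sprayed with test compound in aqueous acetone at about 0.0156 to 0.500 kg per hectare. Plants grew under standard greenhouse care and were visually rated 0-9 against untreated controls 4-5 weeks post-treatment.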

[3] = tested on: ZEAMX (Corn, Field); assay: Postemergence herbicidal evaluation; assay type: in vivo, Zea mays; details: postemergence
In short: (§3)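 Compound is applied as a foliar spray to seedlings about two weeks old, formulated in equal parts acetone and water with 0.5% TWEEN 20 and delivered at 40 psi to give about 0.0156–0.500 kg per hectare. Injury is rated visually 0–9 after four to five weeks.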

[4] = tested on: ECHORC (Watergrass (Calif.)); assay: Postemergence weed control under flooded paddy conditions; assay type: in vivo, Echinochloa oryzoides; details: postemergence weeds, 3-4 weeks after treatment
In short: as §1

[5] = tested on: CYPSE (Flatsedge); assay: as above; assay type: in vivo, Cyperus serotinus; details: postemergence weeds, 3-4 weeks after treatment
In short: as §1

[6] = tested on: CYPIR (Rice Flatsedge); assay: as above; assay type: in vivo, Cyperus iria; details: postemergence weeds, 3-4 weeks after treatment
In short: as §1

[7] = tested on: ZEAMX (Corn, Field); assay: Preemergence herbicidal evaluation; assay type: in vivo, Zea mays; details: rated 4-5 weeks after treatment
In short: as §2

[8] = tested on: ORYSAT (Rice, Tebonnet); assay: Postemergence herbicidal evaluation; assay type: in vivo, Oryza sativa, (L.) Tebonnet; details: postemergence
In short: as §3

[9] = tested on: CYPIR (Rice Flatsedge); assay: Preemergence weed control under flooded paddy conditions; assay type: in vivo, Cyperus iria; details: rated 3-4 weeks after treatment
In short: (§4)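 Silt loam, seeds in top 0.5 cm; flood held 1.5-3 cm; test cpd as acetone/water 50/50 into flood water, ~0.0313-0.500 kg/ha a.i.; greenhouse 3-4 wk; visual 0-9 score vs control.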

[10] = tested on: TRZAWR (Wheat, Winter, cv Riband); assay: Preemergence herbicidal evaluation; assay type: in vivo, Triticum aestivum; details: rated 4-5 weeks after treatment
In short: as §2

[11] = tested on: SETVI (Foxtail, Green); assay: Preemergence herbicidal evaluation; assay type: in vivo, Setaria viridis; details: rated 4-5 weeks after treatment
In short: as §2

[12] = tested on: CYPSE (Flatsedge); assay: Preemergence weed control under flooded paddy conditions; assay type: in vivo, Cyperus serotinus; details: rated 3-4 weeks after treatment
In short: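 First, seeds or propagules go into the top 0.5 cm of silt loam; next, water is held 1.5 to 3 cm over the soil; then compound (50/50 acetone/water) is pipetted into it at about 0.0313 to 0.500 kg/ha; finally plants are rated visually 0-9 after three to four weeks.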

[13] = tested on: SETVI (Foxtail, Green); assay: Postemergence herbicidal evaluation; assay type: in vivo, Setaria viridis; details: postemergence
In short: as §3

[14] = tested on: ECHORC (Watergrass (Calif.)); assay: Preemergence weed control under flooded paddy conditions; assay type: in vivo, Echinochloa oryzoides; details: rated 3-4 weeks after treatment
In short: as §4

CCOC(=O)CN1C(=O)CSC1=Nc1cc(-n2c(=O)cc(C(F)(F)F)n(C)c2=O)c(F)cc1Cl [Compound 8, Ethyl 2-{{2-chloro-5-[3,6-dihydro-3-methyl-2,6-dioxo-4-(trifluoromethyl)-1(2H)pyrimidinyl]-4-fluorophenyl}imino}-4-oxo-3-thiazolidineacetate]
Herbicidal rating SAGPY ([1]; rate 0.0313 kg/ha): 0.0 | Herbicidal rating SAGPY ([1]; rate 0.0625 kg/ha): 0.0 | Herbicidal rating SAGPY ([1]; rate 0.1250 kg/ha): 0.0 | Herbicidal rating SAGPY ([1]; rate 0.2500 kg/ha): 0.0 | ECHCG preemergence herbicidal rating ([2]; rate 0.0156 kg/ha): 0.4 | ECHCG preemergence herbicidal rating ([2]; rate 0.0313 kg/ha): 2.2 | ECHCG preemergence herbicidal rating ([2]; rate 0.0625 kg/ha): 4.4 | ECHCG preemergence herbicidal rating ([2]; rate 0.1250 kg/ha): 7.4 | ECHCG preemergence herbicidal rating ([2]; rate 0.2500 kg/ha): 8.9 | ECHCG preemergence herbicidal rating ([2]; rate 0.5000 kg/ha): 9.0 | ZEAMX herbicidal rating ([3]; rate 0.0157 kg/ha): 7.5 | ZEAMX herbicidal rating ([3]; rate 0.0313 kg/ha): 7.3 | ZEAMX herbicidal rating ([3]; rate 0.0625 kg/ha): 7.4 | ZEAMX herbicidal rating ([3]; rate 0.1250 kg/ha): 7.6 | Herbicidal rating ECHORC ([4]; rate 0.0313 kg/ha): 6.5 | Herbicidal rating ECHORC ([4]; rate 0.0625 kg/ha): 6.5 | Herbicidal rating ECHORC ([4]; rate 0.1250 kg/ha): 7.5 | Herbicidal rating ECHORC ([4]; rate 0.2500 kg/ha): 8.5 | Herbicidal rating CYPSE ([5]; rate 0.0313 kg/ha): 0.0 | Herbicidal rating CYPSE ([5]; rate 0.0625 kg/ha): 0.0 | Herbicidal rating CYPSE ([5]; rate 0.1250 kg/ha): 0.0 | Herbicidal rating CYPSE ([5]; rate 0.2500 kg/ha): 0.0 | Herbicidal rating CYPIR ([6]; rate 0.0313 kg/ha): 0.0 | Herbicidal rating CYPIR ([6]; rate 0.0625 kg/ha): 0.0 | Herbicidal rating CYPIR ([6]; rate 0.1250 kg/ha): 0.0 | Herbicidal rating CYPIR ([6]; rate 0.2500 kg/ha): 4.0 | ZEAMX preemergence herbicidal rating ([7]; rate 0.0156 kg/ha): 2.2 | ZEAMX preemergence herbicidal rating ([7]; rate 0.0313 kg/ha): 4.9 | ZEAMX preemergence herbicidal rating ([7]; rate 0.0625 kg/ha): 6.4 | ZEAMX preemergence herbicidal rating ([7]; rate 0.1250 kg/ha): 7.4 | ZEAMX preemergence herbicidal rating ([7]; rate 0.2500 kg/ha): 7.9 | ZEAMX preemergence herbicidal rating ([7]; rate 0.5000 kg/ha): 8.3 | ORYSAT herbicidal rating ([8]; rate 0.0157 kg/ha): 2.0 | ORYSAT herbicidal rating ([8]; rate 0.0313 kg/ha): 2.7 | ORYSAT herbicidal rating ([8]; rate 0.0625 kg/ha): 4.1 | ORYSAT herbicidal rating ([8]; rate 0.1250 kg/ha): 5.3 | Herbicidal rating CYPIR ([9]; 0.0313 kg/ha): 0.0 | Herbicidal rating CYPIR ([9]; 0.0625 kg/ha): 0.0 | Herbicidal rating CYPIR ([9]; 0.1250 kg/ha): 0.0 | Herbicidal rating CYPIR ([9]; 0.2500 kg/ha): 4.0 | TRZAWR preemergence herbicidal rating ([10]; rate 0.0156 kg/ha): 0.2 | TRZAWR preemergence herbicidal rating ([10]; rate 0.0313 kg/ha): 0.8 | TRZAWR preemergence herbicidal rating ([10]; rate 0.0625 kg/ha): 2.8 | TRZAWR preemergence herbicidal rating ([10]; rate 0.1250 kg/ha): 5.5 | TRZAWR preemergence herbicidal rating ([10]; rate 0.2500 kg/ha): 7.2 | TRZAWR preemergence herbicidal rating ([10]; rate 0.5000 kg/ha): 7.8 | SETVI preemergence herbicidal rating ([11]; rate 0.0156 kg/ha): 2.8 | SETVI preemergence herbicidal rating ([11]; rate 0.0313 kg/ha): 6.1 | SETVI preemergence herbicidal rating ([11]; rate 0.0625 kg/ha): 8.2 | SETVI preemergence herbicidal rating ([11]; rate 0.1250 kg/ha): 9.0 | SETVI preemergence herbicidal rating ([11]; rate 0.2500 kg/ha): 9.0 | SETVI preemergence herbicidal rating ([11]; rate 0.5000 kg/ha): 9.0 | Herbicidal rating CYPSE ([12]; 0.0313 kg/ha): 0.0 | Herbicidal rating CYPSE ([12]; 0.0625 kg/ha): 0.0 | Herbicidal rating CYPSE ([12]; 0.1250 kg/ha): 0.0 | Herbicidal rating CYPSE ([12]; 0.2500 kg/ha): 0.0 | SETVI herbicidal rating ([13]; rate 0.0313 kg/ha): 5.3 | SETVI herbicidal rating ([13]; rate 0.0625 kg/ha): 7.6 | SETVI herbicidal rating ([13]; rate 0.1250 kg/ha): 9.0 | Herbicidal rating ECHORC ([14]; 0.0313 kg/ha): 6.5 | Herbicidal rating ECHORC ([14]; 0.0625 kg/ha): 6.5 | Herbicidal rating ECHORC ([14]; 0.1250 kg/ha): 7.5 | Herbicidal rating ECHORC ([14]; 0.2500 kg/ha): 8.5

Source: US20020137929A1, “1 - (3-heterocyclylphenyl) isothiourea, -isourea, -guanidine and -amidine herbicidal agents” (Intellectual Property Department, BASF Aktiengesellschaft, priority 1998, published 2002)
